Measured values published in patent publication US20090130239A1, “METHOD FOR PREVENTING OR TREATING EDEMA OR DERMATITIS USING GLEHNIA LITTORALIS FR. SCHMIDT ET MIQUEL EXTRACT” (Korea Institute of Oriental Medicine, priority 2007, published 2009).

System: TPA induced immune cell infiltration and epidermal hyperproliferation
Assay: Histopathological analysis of ear tissues (H&E), TPA induced acute dermatitis
Type: in vivo, mouse
Details: ear tissue, 6 hours after TPA, extract 400 mg/kg, indomethacin 10 mg/kg, compared with TPA treated group
Protocol: C57BL/6J male mouse at 5 weeks (DAE HAN BIOLINK CO., LTD.), the most widely used inflammation animal model, was adapted to the experimental environment for 1 week. Total 40 mice were group into 4 (10 mice per each group). TPA (12-O-Tetrade-canoylphobol 13-acetate) was locally applied (2.5 ug/20 ul acetone) to the right ears of 6 week old mice to induce edema and dermatitis. The left ears of the mice were used as the negative control, to which an excipient (20 ul of acetone) was treated. The experimental group was treated with Glehnia littoralis Fr. Schmidt et Miquel extract (400 mg/kg) by intraperitoneal injection one hour before TPA treatment. The positive control group was administered with indomethacin (10 mg/kg) one hour before TPA treatment and the negative control was administered with saline by the same manner.
Inflammation was induced for 6 hours by the same manner as described in Experimental Example <1-1> and then the animal was sacrificed. […] In the […], edema and inflammation accompanying symptoms of migration and infiltration of polymorphonuclear leukocytes were induced. In the meantime, in the experimental group (C) administered with Glehnia littoralis Fr. […]

COc1ccc2c(c1)c(CC(=O)O)c(C)n2C(=O)c1ccc(Cl)cc1 [indomethacin]
infiltration of immune cells and epidermal hyperproliferation: inhibition
